Measured values from US20120122115A1, “Bacterial quorum sensing biosensor” (priority 2006, published 2012).

Tests used:
[1] = target: CLPY biosensor (CFP-LuxP-YFP fusion) (Vibrio harveyi, UniProt P54300, D303A); assay: CLPY FRET binding affinity determination; set-up: species or system V. harveyi
Description: The YFP or CFP fluorescence response of wild-type and mutant forms of CLPY (1.0 mL, 0.015 mg/mL) to different ligands is measured 5 minutes after addition of the ligand to the protein at room temperature. No time-dependent changes in the CLPY FRET ratio are observed after incubation for 5 minutes. All BAI-2 dilutions are carried out in a borate-free buffer to maintain the DPD:borate ratio (1:4). The CLPY FRET ratio response to different BAI-2 concentrations is used to generate the ligand binding saturation curve. For the determination of the binding affinity (Kd) and the binding stoichiometry n, a nonlinear regression analysis equation (Equation 4) is used as shown below: […]
where R is the observed CLPY FRET ratio response for different ligand concentrations (s) and Rmax and Rmin represent the ligand-free and ligand-saturated FRET ratios, respectively.

[2] = test system: V. harveyi strain MM30 (luxS-); assay: Bacterial reporter bioassay (luminescence) and EC50 determination; assay type: cell-based; conditions: MM30 in borate-free AB medium
Description: V. harveyi strain MM30 (luxS^−) is grown overnight at 28° C. for 16 hours and diluted 1:5000 in fresh borate-free AB medium. Bacteria (90 μL) are added to a 96-well microtiter plate containing 10 μL dilutions of the sample and incubated for 4 hours at 30° C. Luminescence is read using a Wallac Victor2 multimode plate reader (Perkin-Elmer). The BAI-2 concentration required for 50% maximum luminescence response (EC50) is determined using a relationship based on the luminescence response L for different ligand concentrations (s)
where Lmin and Lmax represent the minimum and maximum luminescence responses, respectively, at the time of measurement.

| SMILES | CLPY FRET response ([1]; borate ≦400 μM) | bacterial reporter strain luminescence response (qualitative) [2] | CLPY FRET response ([1]; DPD ≦100 μM) |
| --- | --- | --- | --- |
| OB(O)O [borate] | did not exhibit any detectable FRET response | did not respond | – |
| CC(=O)C(=O)C(O)CO (stereo not shown) [DPD, 4,5-dihydroxy-2,3-pentanedione] | – | did not respond | did not exhibit any detectable FRET response |
